Patent US8921318B2, “Application of initial doses of LHRH analogues and maintenance doses of LHRH antagonists for the treatment of hormone-dependent cancers and corresponding pharmaceutical kits” (Aeterna Zentaris GmbH, priority 2006, dated 2014)

Tests used:
[1] = tested on: testosterone levels; test: Testosterone levels in prostate cancer patients under initial dose / maintenance dose treatment; format: in vivo, human; conditions: for testosterone levels during first period: prostate cancer patients
Procedure: (§1) 130 mg ozarelix is given as a single monthly initial dose per i.m. injection every 4 weeks to patients suffering from prostate cancer for a first period of 3 months. […] Subsequently, patients are treated with single monthly maintenance doses of 30 mg ozarelix given per i.m. injection over a period of 6 months. […] The treatment scheme is then repeated continuously (chronic treatment).
(§2) 200 mg ozarelix is given as a single initial dose per i.m. injection once every 3 months to patients suffering from prostate cancer for a first period of 3 to 6 months. […] Subsequently, patients are treated with single monthly maintenance doses of 40 mg ozarelix given per i.m. injection over a period of 6 months. […] The treatment scheme is then repeated continuously (chronic treatment).
as §1, with “3.75” for “130”, “leuprorelin (leuprolide) are” for “ozarelix is”, “6” for “3”, “20” for “30”, “9” for “6”
as §2, with “11.25” for “200”, “leuprorelin (leuprolide) are” for “ozarelix is”, “three” for “3”, “3” for “3 to 6”, “50” for “40”, “3” for “6”

[2] = tested on: Prostate Specific Antigen (PSA); test: PSA levels in prostate cancer patients under initial dose / maintenance dose treatment; format: in vivo, human; conditions: for PSA levels decrease during first period: prostate cancer patients
Procedure: as §1, §2
as §1, with “3.75” for “130”, “leuprorelin (leuprolide) are” for “ozarelix is”, “6” for “3”, “20” for “30”, “9” for “6”
as §2, with “11.25” for “200”, “leuprorelin (leuprolide) are” for “ozarelix is”, “three” for “3”, “3” for “3 to 6”, “50” for “40”, “3” for “6”

[3] = Example 1: 130 mg ozarelix i.m. single monthly initial dose every 4 weeks, first period 3 months
[4] = Example 1: monthly maintenance doses of 30 mg ozarelix i.m. over 6 months, after 130 mg ozarelix initial doses
[5] = Example 2: 200 mg ozarelix i.m. single initial dose once every 3 months, first period 3 to 6 months
[6] = Example 2: monthly maintenance doses of 40 mg ozarelix i.m. over 6 months, after 200 mg ozarelix initial doses
[7] = Example 3: monthly maintenance doses of 20 mg ozarelix i.m. over 9 months, after 3.75 mg leuprorelin initial doses
[8] = Example 4: monthly maintenance doses of 50 mg ozarelix i.m. over 3 months, after 11.25 mg leuprorelin initial dose
[9] = Example 3: 3.75 mg leuprorelin i.m. single monthly initial dose every 4 weeks, first period 6 months
[10] = Example 4: 11.25 mg leuprorelin i.m. single initial dose once every three months, first period 3 months

Compound | testosterone levels during first period [1, 3] | testosterone levels during second period [1, 4] | testosterone levels during first period [1, 5] | testosterone levels during second period [1, 6] | testosterone levels during second period [1, 7] | testosterone levels during second period [1, 8] | PSA levels decrease during first period [2, 3] | PSA levels during second period [2, 4] | PSA levels decrease during first period [2, 5] | PSA levels during second period [2, 6] | PSA levels during second period [2, 7] | PSA levels during second period [2, 8] | testosterone levels during first period [1, 9] | testosterone levels during first period [1, 10] | PSA levels decrease during first period [2, 9] | PSA levels decrease during first period [2, 10]
ozarelix | quickly reach castration level | above 0.5 ng/mL | quickly reach castration level | above 0.5 ng/mL | above 0.5 ng/mL | above 0.5 ng/mL | up to 95% | remain stably low until the end of the second period | up to 95% | remain stably low until the end of the second period | remain stably low until the end of the second period | remain stably low until the end of the second period |  |  |  | 
CCNC(=O)[C@@H]1CCCN1C(=O)[C@H](CCCNC(=N)N)NC(=O)[C@H](CC(C)C)NC(=O)[C@@H](CC(C)C)NC(=O)[C@H](Cc1ccc(O)cc1)NC(=O)[C@H](CO)NC(=O)[C@H](Cc1c[nH]c2ccccc12)NC(=O)[C@H](Cc1c[nH]cn1)NC(=O)[C@@H]1CCC(=O)N1 [leuprorelin] |  |  |  |  |  |  |  |  |  |  |  |  | quickly reach castration level | quickly reach castration level | up to 95% | up to 95%
